# Test results from PubChem BioAssay (NCI).
#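 Five concentrations, 48 hours, 96-well plates. GI50 = concentration required for 50% inhibition of growth. The concentration for full growth arrest is given as TGI.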
# Key:
# Assay in all cases: DTP human tumour cell line panel, 48 h
# U251 CNS = test system: U251 CNS
# PC-3 prostate = test system: PC-3 prostate
# MCF7 breast = test system: MCF7 breast
# OVCAR-5 ovarian = test system: OVCAR-5 ovarian
# K-562 leukemia = test system: K-562 leukemia
# NCI-H460 lung = test system: NCI-H460 lung
# M14 melanoma = test system: M14 melanoma
# SNB-19 CNS = test system: SNB-19 CNS
# HOP-62 NSCLC = test system: HOP-62 NSCLC
# UACC-257 melanoma = test system: UACC-257 melanoma
# SK-MEL-28 melanoma = test system: SK-MEL-28 melanoma
# HCT-15 colon = test system: HCT-15 colon
# HCT-116 colon = test system: HCT-116 colon
# EKVX NSCLC = test system: EKVX NSCLC
# OVCAR-4 ovarian = test system: OVCAR-4 ovarian
# NCI-H226 lung = test system: NCI-H226 lung
# SK-MEL-2 melanoma = test system: SK-MEL-2 melanoma
# RPMI-8226 leukemia = test system: RPMI-8226 leukemia
# SN12C renal = test system: SN12C renal
# MDA-MB-231 breast = test system: MDA-MB-231 breast
# CCRF-CEM leukemia = test system: CCRF-CEM leukemia
# MDA-MB-435 = test system: MDA-MB-435
# TK-10 renal = test system: TK-10 renal
# A549 NSCLC = test system: A549 NSCLC
# BT-549 breast = test system: BT-549 breast
# OVCAR-3 ovarian = test system: OVCAR-3 ovarian
# 786-0 renal = test system: 786-0 renal
# NCI/ADR-RES ovarian = test system: NCI/ADR-RES ovarian
# CAKI-1 renal = test system: CAKI-1 renal
# ACHN renal = test system: ACHN renal
# NCI-H23 lung = test system: NCI-H23 lung
# UACC-62 melanoma = test system: UACC-62 melanoma
# NCI-H522 lung = test system: NCI-H522 lung
# SK-MEL-5 melanoma = test system: SK-MEL-5 melanoma
# KM12 colon = test system: KM12 colon
# HS 578T breast = test system: HS 578T breast
# SNB-75 CNS = test system: SNB-75 CNS
# LOX IMVI melanoma = test system: LOX IMVI melanoma
# UO-31 renal = test system: UO-31 renal
# SF-539 CNS = test system: SF-539 CNS
# SW-620 colon = test system: SW-620 colon
# RXF 393 renal = test system: RXF 393 renal
# SF-295 CNS = test system: SF-295 CNS
# SF-268 CNS = test system: SF-268 CNS
# IGROV1 ovarian = test system: IGROV1 ovarian
# MOLT-4 leukemia = test system: MOLT-4 leukemia
# SK-OV-3 ovarian = test system: SK-OV-3 ovarian
# HOP-92 NSCLC = test system: HOP-92 NSCLC
# COLO 205 colon = test system: COLO 205 colon
# HT29 colon = test system: HT29 colon
# T-47D breast = test system: T-47D breast
# DU-145 prostate = test system: DU-145 prostate
# OVCAR-8 ovarian = test system: OVCAR-8 ovarian
# HCC-2998 colon = test system: HCC-2998 colon
smiles,measurement,setting,value
NS(=O)(=O)c1ccc(-n2nc3c(c2-c2cccs2)Cc2ccccc2-3)cc1,GI50,U251 CNS,12.3 µM
same,TGI,U251 CNS,25.8 µM
same,GI50,PC-3 prostate,6.76 µM
same,TGI,PC-3 prostate,20.6 µM
same,GI50,MCF7 breast,> 100 µM
same,TGI,MCF7 breast,> 100 µM
same,GI50,OVCAR-5 ovarian,18.5 µM
same,TGI,OVCAR-5 ovarian,48 µM
same,GI50,K-562 leukemia,0.858 µM
same,TGI,K-562 leukemia,3.55 µM
same,GI50,NCI-H460 lung,> 100 µM
same,TGI,NCI-H460 lung,> 100 µM
same,GI50,M14 melanoma,17.3 µM
same,TGI,M14 melanoma,34.1 µM
same,GI50,SNB-19 CNS,18.1 µM
same,TGI,SNB-19 CNS,44.8 µM
same,GI50,HOP-62 NSCLC,16.5 µM
same,TGI,HOP-62 NSCLC,32.2 µM
same,GI50,UACC-257 melanoma,23.2 µM
same,TGI,UACC-257 melanoma,44.2 µM
same,GI50,SK-MEL-28 melanoma,25.8 µM
same,TGI,SK-MEL-28 melanoma,58.4 µM
same,GI50,HCT-15 colon,12 µM
same,TGI,HCT-15 colon,27.8 µM
same,GI50,HCT-116 colon,7.67 µM
same,TGI,HCT-116 colon,22.7 µM
same,GI50,EKVX NSCLC,11.9 µM
same,TGI,EKVX NSCLC,29.4 µM
same,GI50,OVCAR-4 ovarian,29.9 µM
same,TGI,OVCAR-4 ovarian,> 100 µM
same,GI50,NCI-H226 lung,4.9 µM
same,TGI,NCI-H226 lung,26.2 µM
same,GI50,SK-MEL-2 melanoma,27.6 µM
same,TGI,SK-MEL-2 melanoma,69.6 µM
same,GI50,RPMI-8226 leukemia,6.68 µM
same,TGI,RPMI-8226 leukemia,26.6 µM
same,GI50,SN12C renal,12.2 µM
same,TGI,SN12C renal,25 µM
same,GI50,MDA-MB-231 breast,17.3 µM
same,TGI,MDA-MB-231 breast,36.2 µM
same,GI50,CCRF-CEM leukemia,4.24 µM
same,TGI,CCRF-CEM leukemia,28.7 µM
same,GI50,MDA-MB-435,11.8 µM
same,TGI,MDA-MB-435,27.6 µM
same,GI50,TK-10 renal,12.2 µM
same,TGI,TK-10 renal,38.7 µM
same,GI50,A549 NSCLC,20.7 µM
same,TGI,A549 NSCLC,51.1 µM
same,GI50,BT-549 breast,12.4 µM
same,TGI,BT-549 breast,26.3 µM
same,GI50,OVCAR-3 ovarian,14.4 µM
same,TGI,OVCAR-3 ovarian,44.4 µM
same,GI50,786-0 renal,17.1 µM
same,TGI,786-0 renal,31.9 µM
same,GI50,NCI/ADR-RES ovarian,12.4 µM
same,TGI,NCI/ADR-RES ovarian,26.1 µM
same,GI50,CAKI-1 renal,10.1 µM
same,TGI,CAKI-1 renal,22.7 µM
same,GI50,ACHN renal,11.7 µM
same,TGI,ACHN renal,24.7 µM
same,GI50,NCI-H23 lung,11.9 µM
same,TGI,NCI-H23 lung,24.8 µM
same,GI50,UACC-62 melanoma,11.5 µM
same,TGI,UACC-62 melanoma,23.7 µM
same,GI50,NCI-H522 lung,12.4 µM
same,TGI,NCI-H522 lung,29.8 µM
same,GI50,SK-MEL-5 melanoma,10.5 µM
same,TGI,SK-MEL-5 melanoma,22.5 µM
same,GI50,KM12 colon,13.5 µM
same,TGI,KM12 colon,32.2 µM
same,GI50,HS 578T breast,16.1 µM
same,TGI,HS 578T breast,51 µM
same,GI50,SNB-75 CNS,25.5 µM
same,TGI,SNB-75 CNS,83.1 µM
same,GI50,LOX IMVI melanoma,6.58 µM
same,TGI,LOX IMVI melanoma,19.9 µM
same,GI50,UO-31 renal,12.2 µM
same,TGI,UO-31 renal,24.6 µM
same,GI50,SF-539 CNS,12.1 µM
same,TGI,SF-539 CNS,25.1 µM
same,GI50,SW-620 colon,10.2 µM
same,TGI,SW-620 colon,23.4 µM
same,GI50,RXF 393 renal,17.4 µM
same,TGI,RXF 393 renal,40.7 µM
same,GI50,SF-295 CNS,13.8 µM
same,TGI,SF-295 CNS,31.4 µM
same,GI50,SF-268 CNS,> 100 µM
same,TGI,SF-268 CNS,> 100 µM
same,GI50,IGROV1 ovarian,2.49 µM
same,TGI,IGROV1 ovarian,15.5 µM
same,GI50,MOLT-4 leukemia,1.43 µM
same,TGI,MOLT-4 leukemia,3.97 µM
same,GI50,SK-OV-3 ovarian,37.7 µM
same,TGI,SK-OV-3 ovarian,> 100 µM
same,GI50,HOP-92 NSCLC,5.56 µM
same,TGI,HOP-92 NSCLC,22.7 µM
same,GI50,COLO 205 colon,25.3 µM
same,TGI,COLO 205 colon,69.3 µM
same,GI50,HT29 colon,22.9 µM
same,TGI,HT29 colon,59.4 µM
same,GI50,T-47D breast,12.8 µM
same,TGI,T-47D breast,41.1 µM
same,GI50,DU-145 prostate,10.6 µM
same,TGI,DU-145 prostate,24 µM
same,GI50,OVCAR-8 ovarian,20.5 µM
same,TGI,OVCAR-8 ovarian,41.6 µM
same,GI50,HCC-2998 colon,12.8 µM
same,TGI,HCC-2998 colon,25.4 µM
